Measured values taken from the NIST ThermoML archive (doi:10.1021/je100089s).
± gives the expanded uncertainty stated by the source.

Experiment: xn = mol fraction of the nth substance listed
Settings: Liquid, Vibrating tube method

OCCO [1,2-ethanediol] + C[S+](C)[O-]
mass density [kg/m3]
Settings	101 kPa	10000 kPa	25000 kPa	50000 kPa	75000 kPa	100000 kPa
298.15 K, x2 = 0	–	–	–	–	–	1145.51 ± 0.91
298.15 K, x2 = 0.0181	–	–	–	–	–	1145.75 ± 0.91
298.15 K, x2 = 0.0403	–	–	–	–	–	1145.93 ± 0.91
298.15 K, x2 = 0.0701	–	–	–	–	–	1146.24 ± 0.91
298.15 K, x2 = 0.1097	–	–	–	–	1138.51 ± 0.74	1146.54 ± 0.92
298.15 K, x2 = 0.1408	–	–	–	–	1138.73 ± 0.74	1146.83 ± 0.92
298.15 K, x2 = 0.1934	–	–	–	–	1138.98 ± 0.75	1147.29 ± 0.92
298.15 K, x2 = 0.234	–	–	–	–	1139.19 ± 0.75	1147.46 ± 0.92
298.15 K, x2 = 0.3244	–	–	–	–	1139.38 ± 0.75	1147.77 ± 0.92
298.15 K, x2 = 0.3764	–	–	–	–	1139.43 ± 0.75	1147.93 ± 0.92
298.15 K, x2 = 0.4429	–	–	–	–	1139.4 ± 0.75	1148.01 ± 0.92
298.15 K, x2 = 0.4892	–	–	–	–	1139.31 ± 0.75	1147.94 ± 0.92
298.15 K, x2 = 0.5654	–	–	–	–	1139.23 ± 0.75	1147.85 ± 0.92
298.15 K, x2 = 0.6946	–	–	–	–	1138.74 ± 0.74	1147.55 ± 0.92
298.15 K, x2 = 0.8142	–	–	–	–	1137.98 ± 0.74	1146.87 ± 0.92
298.15 K, x2 = 0.9266	–	–	–	–	1137.07 ± 0.74	1146.03 ± 0.91
308.15 K, x2 = 0	–	1107.05 ± 0.36	1112.97 ± 0.43	1122.28 ± 0.56	1131.41 ± 0.72	1139.57 ± 0.88
308.15 K, x2 = 0.0181	–	1107.03 ± 0.36	1113.01 ± 0.43	1122.41 ± 0.56	1131.6 ± 0.72	1139.78 ± 0.88
308.15 K, x2 = 0.0403	–	1106.95 ± 0.36	1112.98 ± 0.43	1122.46 ± 0.56	1131.72 ± 0.72	1139.87 ± 0.88
308.15 K, x2 = 0.07007	1102.45 ± 0.31	–	–	–	–	–
308.15 K, x2 = 0.0701	–	1106.68 ± 0.36	1112.81 ± 0.43	1122.47 ± 0.56	1131.86 ± 0.72	1140.08 ± 0.88
308.15 K, x2 = 0.1097	1102.12 ± 0.31	1106.18 ± 0.36	1112.54 ± 0.43	1122.52 ± 0.56	1132.17 ± 0.72	1140.24 ± 0.89
308.15 K, x2 = 0.1408	1101.88 ± 0.31	1105.87 ± 0.35	1112.37 ± 0.43	1122.47 ± 0.56	1132.33 ± 0.72	1140.54 ± 0.89
308.15 K, x2 = 0.1934	1101.33 ± 0.31	1105.29 ± 0.35	1111.97 ± 0.43	1122.32 ± 0.56	1132.37 ± 0.72	1140.74 ± 0.89
308.15 K, x2 = 0.234	1100.86 ± 0.31	1104.74 ± 0.35	1111.63 ± 0.43	1122.23 ± 0.56	1132.39 ± 0.72	1140.88 ± 0.89
308.15 K, x2 = 0.3244	1099.65 ± 0.31	1103.53 ± 0.35	1110.76 ± 0.43	1121.85 ± 0.56	1132.45 ± 0.72	1140.94 ± 0.89
308.15 K, x2 = 0.3764	1098.89 ± 0.31	–	–	1121.58 ± 0.56	1132.41 ± 0.72	1140.97 ± 0.89
308.15 K, x2 = 0.4429	1097.76 ± 0.31	1101.57 ± 0.35	1109.29 ± 0.42	1121.09 ± 0.56	1132.2 ± 0.72	1140.85 ± 0.89
308.15 K, x2 = 0.4892	1096.94 ± 0.31	1100.74 ± 0.35	1108.61 ± 0.42	1120.71 ± 0.56	1132.04 ± 0.72	1140.71 ± 0.89
308.15 K, x2 = 0.5654	–	1099.47 ± 0.35	1107.59 ± 0.42	1120.07 ± 0.56	1131.68 ± 0.72	1140.47 ± 0.89
308.15 K, x2 = 0.6298	1094.18 ± 0.3	–	–	–	–	–
308.15 K, x2 = 0.6946	1092.91 ± 0.3	1097.4 ± 0.34	1105.69 ± 0.42	1118.74 ± 0.55	1130.89 ± 0.71	1139.72 ± 0.88
308.15 K, x2 = 0.8142	1090.07 ± 0.3	1094.91 ± 0.34	1103.81 ± 0.41	–	1129.86 ± 0.71	1138.6 ± 0.88
308.15 K, x2 = 0.9266	1087.25 ± 0.3	1092.99 ± 0.34	1101.96 ± 0.41	1115.8 ± 0.55	1128.85 ± 0.71	1137.41 ± 0.87
308.15 K, x2 = 0.9577	1086.43 ± 0.3	–	–	–	–	–
308.15 K, x2 = 0.9836	1085.76 ± 0.3	1091.87 ± 0.34	1100.89 ± 0.41	1115.04 ± 0.54	1128.14 ± 0.7	1136.73 ± 0.87
308.15 K, x2 = 0.992	1085.53 ± 0.3	–	–	–	–	–
308.15 K, x2 = 0.9968	1085.39 ± 0.3	–	–	–	–	–
323.15 K, x2 = 0	1092.12 ± 0.3	–	–	1112.75 ± 0.54	1122.55 ± 0.68	1130.66 ± 0.84
323.15 K, x2 = 0.00452	1092.05 ± 0.3	–	–	–	–	–
323.15 K, x2 = 0.00721	1092.03 ± 0.3	–	–	–	–	–
323.15 K, x2 = 0.0181	–	–	–	1112.77 ± 0.54	1122.62 ± 0.68	1130.77 ± 0.84
323.15 K, x2 = 0.01811	1091.95 ± 0.3	–	–	–	–	–
323.15 K, x2 = 0.03033	1091.83 ± 0.3	–	–	–	–	–
323.15 K, x2 = 0.04027	1091.72 ± 0.3	–	–	–	–	–
323.15 K, x2 = 0.0403	–	–	–	1112.8 ± 0.54	1122.72 ± 0.68	1130.87 ± 0.84
323.15 K, x2 = 0.07007	1091.39 ± 0.3	–	–	–	–	–
323.15 K, x2 = 0.0701	–	–	1102.37 ± 0.41	1112.82 ± 0.54	1122.84 ± 0.68	1130.96 ± 0.84
323.15 K, x2 = 0.1097	1090.85 ± 0.3	1095.4 ± 0.34	1102.05 ± 0.41	1112.71 ± 0.54	1122.87 ± 0.68	1131 ± 0.84
323.15 K, x2 = 0.1408	1090.44 ± 0.3	1095 ± 0.34	1101.79 ± 0.41	1112.64 ± 0.54	1122.91 ± 0.68	1131.06 ± 0.84
323.15 K, x2 = 0.1934	1089.61 ± 0.3	1094.25 ± 0.34	1101.25 ± 0.41	1112.4 ± 0.54	1122.85 ± 0.68	1130.99 ± 0.84
323.15 K, x2 = 0.234	–	1093.65 ± 0.34	1100.8 ± 0.41	1112.23 ± 0.54	1122.77 ± 0.68	1130.94 ± 0.84
323.15 K, x2 = 0.3244	1087.33 ± 0.3	1092.16 ± 0.34	1099.69 ± 0.41	1111.61 ± 0.53	1122.44 ± 0.68	1130.63 ± 0.84
323.15 K, x2 = 0.3764	1086.33 ± 0.3	1091.26 ± 0.34	1098.98 ± 0.4	1111.18 ± 0.53	1122.18 ± 0.68	1130.38 ± 0.84
323.15 K, x2 = 0.4429	1084.93 ± 0.3	1090 ± 0.34	1097.94 ± 0.4	1110.52 ± 0.53	1121.69 ± 0.68	1129.92 ± 0.84
323.15 K, x2 = 0.4892	1083.92 ± 0.3	–	1097.2 ± 0.4	–	1121.34 ± 0.68	1129.57 ± 0.84
323.15 K, x2 = 0.5654	1082.23 ± 0.3	1087.55 ± 0.33	–	1109.22 ± 0.53	1120.75 ± 0.68	1128.99 ± 0.83
323.15 K, x2 = 0.6298	1080.61 ± 0.29	–	–	–	–	–
323.15 K, x2 = 0.6946	1079.07 ± 0.29	1084.73 ± 0.33	1093.6 ± 0.39	1107.58 ± 0.52	1119.48 ± 0.67	1127.72 ± 0.83
323.15 K, x2 = 0.8142	1075.74 ± 0.29	1081.78 ± 0.33	1091.06 ± 0.39	1105.68 ± 0.52	1117.9 ± 0.67	1126.09 ± 0.82
323.15 K, x2 = 0.867	1074.15 ± 0.29	–	–	–	–	–
323.15 K, x2 = 0.9266	1072.5 ± 0.29	1078.85 ± 0.32	–	1103.78 ± 0.51	1116.27 ± 0.66	1124.43 ± 0.81
323.15 K, x2 = 0.9577	1071.55 ± 0.29	–	–	–	–	–
323.15 K, x2 = 0.9836	1070.76 ± 0.29	1077.32 ± 0.32	1087.21 ± 0.38	–	1115.35 ± 0.66	1123.49 ± 0.81
323.15 K, x2 = 0.992	1070.5 ± 0.29	–	–	–	–	–
323.15 K, x2 = 0.9968	1070.35 ± 0.29	–	–	–	–	–
